In the NIST ThermoML archive (doi:10.1016/j.jct.2012.02.007):
Numbers after ± are expanded uncertainties.

Key:
[1] = osmotic coefficient (dimensionless); mn = molality of the nth substance listed, in mol/kg; details: 323.15 K, Liquid, Vapor Pressure Osmometer
[2] = mn = molality of the nth substance listed, in mol/kg; details: 101.3 kPa, Liquid; for speed of sound: Sing-around technique in a fixed-path interferometer; for mass density: Vibrating tube method

CCCCn1cc[n+](C)c1.N#CN=C=[N-] [1-butyl-3-methylimidazolium dicyanamide] + CCCCCO
[1]
Details | osmotic coefficient
m1 = 0.0625 | 0.784 ± 0.014
m1 = 0.0829 | 0.719 ± 0.016
m1 = 0.1019 | 0.669 ± 0.017
m1 = 0.2131 | 0.627 ± 0.018
m1 = 0.3093 | 0.596 ± 0.019
m1 = 0.4113 | 0.582 ± 0.019
m1 = 0.5349 | 0.566 ± 0.019
m1 = 0.8273 | 0.537 ± 0.02
m1 = 1.131 | 0.52 ± 0.021
m1 = 1.443 | 0.509 ± 0.021
m1 = 1.749 | 0.502 ± 0.021
m1 = 2.246 | 0.493 ± 0.022
m1 = 2.756 | 0.478 ± 0.022
m1 = 3.23 | 0.458 ± 0.023

[2]
Details | mass density, 293.15 K [kg/m3] | mass density, 308.15 K [kg/m3] | mass density, 323.15 K [kg/m3] | speed of sound, 293.15 K [m/s] | speed of sound, 308.15 K [m/s] | speed of sound, 323.15 K [m/s]
m1 = 0.0499 | 816.84 ± 0.24 | 805.86 ± 0.24 | 794.56 ± 0.24 | 1296.1 ± 1.3 | 1246.2 ± 1.3 | 1196.7 ± 1.3
m1 = 0.1005 | 818.99 ± 0.24 | 808.05 ± 0.24 | 796.79 ± 0.24 | 1299.3 ± 1.3 | 1249.5 ± 1.3 | 1200.3 ± 1.3
m1 = 0.1579 | 821.34 ± 0.24 | 810.43 ± 0.24 | 799.21 ± 0.24 | 1302.8 ± 1.3 | 1253.2 ± 1.3 | 1204.2 ± 1.3
m1 = 0.2012 | 823.14 ± 0.25 | 812.25 ± 0.25 | 801.07 ± 0.25 | 1305.5 ± 1.3 | 1256 ± 1.3 | 1207.2 ± 1.3
m1 = 0.2575 | 825.39 ± 0.25 | 814.53 ± 0.25 | 803.38 ± 0.25 | 1308.7 ± 1.4 | 1259.4 ± 1.3 | 1210.8 ± 1.3
m1 = 0.5093 | 834.72 ± 0.26 | 823.96 ± 0.26 | 812.96 ± 0.26 | 1322.3 ± 1.4 | 1273.7 ± 1.4 | 1225.8 ± 1.4
m1 = 0.7636 | 843.46 ± 0.27 | 832.73 ± 0.27 | 821.84 ± 0.27 | 1334.4 ± 1.4 | 1286.4 ± 1.4 | 1238.6 ± 1.4
m1 = 1.022 | 851.58 ± 0.29 | 840.96 ± 0.29 | 830.18 ± 0.29 | 1346.7 ± 1.5 | 1299.3 ± 1.5 | 1252.8 ± 1.4
m1 = 1.271 | 858.96 ± 0.3 | 848.35 ± 0.3 | 837.65 ± 0.3 | 1357 ± 1.5 | 1310.2 ± 1.5 | 1263.7 ± 1.5
m1 = 1.52 | 865.82 ± 0.31 | 855.32 ± 0.31 | 844.69 ± 0.31 | 1367.7 ± 1.5 | 1321.4 ± 1.5 | 1275.9 ± 1.5
m1 = 1.766 | 872.07 ± 0.32 | 861.65 ± 0.32 | 851.09 ± 0.32 | 1377 ± 1.5 | 1331.2 ± 1.5 | 1286.1 ± 1.5
m1 = 1.982 | 877.32 ± 0.33 | 866.91 ± 0.33 | 856.41 ± 0.33 | 1385 ± 1.6 | 1339.5 ± 1.6 | 1294.8 ± 1.5
m1 = 2.527 | 889.3 ± 0.36 | 878.99 ± 0.36 | 868.61 ± 0.35 | 1403.6 ± 1.6 | 1358.9 ± 1.6 | 1315.1 ± 1.6
m1 = 2.998 | 898.47 ± 0.38 | 888.26 ± 0.37 | 877.98 ± 0.37 | 1418.4 ± 1.6 | 1374.3 ± 1.6 | 1331.1 ± 1.6
m1 = 3.512 | 907.39 ± 0.4 | 897.32 ± 0.39 | 887.14 ± 0.39 | 1432.6 ± 1.7 | 1389.6 ± 1.7 | 1347 ± 1.7

CCCCn1cc[n+](C)c1.N#CN=C=[N-] [1-butyl-3-methylimidazolium dicyanamide] + CCCCO
[1]
Details | osmotic coefficient
m1 = 0.0803 | 0.739 ± 0.015
m1 = 0.1014 | 0.707 ± 0.016
m1 = 0.2018 | 0.653 ± 0.017
m1 = 0.31 | 0.625 ± 0.018
m1 = 0.4166 | 0.604 ± 0.018
m1 = 0.5175 | 0.594 ± 0.019
m1 = 0.8182 | 0.585 ± 0.019
m1 = 1.221 | 0.564 ± 0.02
m1 = 1.633 | 0.551 ± 0.02
m1 = 2.026 | 0.536 ± 0.02
m1 = 2.413 | 0.528 ± 0.021
m1 = 2.82 | 0.522 ± 0.021
m1 = 3.306 | 0.508 ± 0.021

[2]
Details | mass density, 293.15 K [kg/m3] | mass density, 308.15 K [kg/m3] | mass density, 323.15 K [kg/m3] | speed of sound, 293.15 K [m/s] | speed of sound, 308.15 K [m/s] | speed of sound, 323.15 K [m/s]
m1 = 0.0564 | 812.2 ± 0.12 | 800.77 ± 0.12 | 788.99 ± 0.12 | 1261.4 ± 0.9 | 1211.3 ± 0.8 | 1161.9 ± 0.8
m1 = 0.1049 | 814.3 ± 0.12 | 802.91 ± 0.12 | 791.18 ± 0.12 | 1264.8 ± 0.9 | 1214.9 ± 0.8 | 1165.8 ± 0.8
m1 = 0.156 | 816.47 ± 0.12 | 805.11 ± 0.12 | 793.43 ± 0.12 | 1268.3 ± 0.9 | 1218.6 ± 0.8 | 1169.6 ± 0.8
m1 = 0.204 | 818.49 ± 0.12 | 807.15 ± 0.12 | 795.51 ± 0.12 | 1271.7 ± 0.9 | 1222 ± 0.9 | 1173.1 ± 0.8
m1 = 0.2581 | 820.7 ± 0.12 | 809.41 ± 0.12 | 797.8 ± 0.12 | 1275.2 ± 0.9 | 1225.8 ± 0.9 | 1177.1 ± 0.8
m1 = 0.5068 | 830.31 ± 0.12 | 819.12 ± 0.12 | 807.68 ± 0.12 | 1290.3 ± 0.9 | 1241.6 ± 0.9 | 1193.7 ± 0.9
m1 = 0.7637 | 839.41 ± 0.12 | 828.32 ± 0.12 | 817.01 ± 0.13 | 1304.9 ± 0.9 | 1256.7 ± 0.9 | 1209.3 ± 0.9
m1 = 1.006 | 847.36 ± 0.12 | 836.34 ± 0.13 | 825.14 ± 0.13 | 1317.6 ± 1 | 1270 ± 0.9 | 1223.2 ± 0.9
m1 = 1.271 | 855.38 ± 0.13 | 844.45 ± 0.13 | 833.35 ± 0.13 | 1330.6 ± 1 | 1283.5 ± 1 | 1237.4 ± 1
m1 = 1.516 | 862.28 ± 0.13 | 851.41 ± 0.14 | 840.4 ± 0.14 | 1341.9 ± 1 | 1295.3 ± 1 | 1249.7 ± 1
m1 = 1.766 | 868.85 ± 0.14 | 858.05 ± 0.14 | 847.12 ± 0.14 | 1352.9 ± 1.1 | 1306.7 ± 1 | 1261.6 ± 1
m1 = 2.004 | 874.76 ± 0.15 | 864.01 ± 0.15 | 853.15 ± 0.15 | 1362.9 ± 1.1 | 1317.1 ± 1.1 | 1272.3 ± 1.1
m1 = 2.509 | 886.17 ± 0.16 | 875.53 ± 0.16 | 864.81 ± 0.17 | 1382.3 ± 1.1 | 1337.5 ± 1.1 | 1293.4 ± 1.1
m1 = 2.993 | 895.87 ± 0.18 | 885.33 ± 0.18 | 874.72 ± 0.18 | 1399.5 ± 1.2 | 1355.1 ± 1.2 | 1311.7 ± 1.2
m1 = 3.535 | 905.44 ± 0.2 | 895.01 ± 0.2 | 884.51 ± 0.2 | 1416.7 ± 1.3 | 1373 ± 1.3 | 1330.2 ± 1.2
